# Counter-ions that a name gives are not always drawn. Like-named read-outs stand apart in the source and are kept apart here.
# Assays:
# Assay type in all cases: cell-based
# [1] = system: X. maltophilia NEMC 87210; assay: MIC, agar dilution method; conditions: Stenotrophomonas maltophilia, NEMC87210, 18 h, 18 hours at 35° C.
# [2] = system: E. coli J2175; assay: MIC, agar dilution method; conditions: Escherichia coli, 18 hours at 35° C., read-out: MIC
# [3] = system: S. aureus UBMS 90-3; assay: MIC, agar dilution method; conditions: Staphylococcus aureus
# [4] = system: E. faecalis ATCC 29212; assay: MIC, agar dilution method; conditions: Enterococcus faecalis
# [5] = system: S. aureus IVES 2943; assay: MIC, agar dilution method; conditions: Staphylococcus aureus, IVES2943, 18 h
# [6] = system: E. coli UBMS 90-5 sens; assay: MIC, agar dilution method; conditions: Escherichia coli, UBMS905SENS, 18 hours at 35° C., read-out: MIC
# [7] = system: E. coli UBMS 89-1 Tet M; assay: microbe, parasite or virus in culture; conditions: Escherichia coli, UBMS891TETM, 18 h, 18 hours at 35° C.
# [8] = system: S. aureus UBMS 90-1 Tet M; assay: microbe, parasite or virus in culture; conditions: 18 hours at 35° C.
# [9] = system: S. aureus UBMS 88-7 Tet K; assay: microbe, parasite or virus in culture; conditions: 18 hours at 35° C.
# [10] = system: S. aureus ROSE (MP); assay: MIC, agar dilution method; conditions: 18 hours at 35° C.
# [11] = system: E. coli PRP1 Tet A; assay: microbe, parasite or virus in culture; conditions: Escherichia coli, PRP1TETA, 18 h, 18 hours at 35° C.
# [12] = system: S. mariescens FPOR 8733; assay: MIC, agar dilution method; conditions: 18 h, 18 hours at 35° C.
# [13] = system: S. aureus UBMS 88-4; assay: MIC, agar dilution method; conditions: Staphylococcus aureus, UBMS884, 18 hours at 35° C., read-out: MIC
# [14] = system: S. aureus UBMS 90-2 Tet M; assay: microbe, parasite or virus in culture; conditions: Staphylococcus aureus, UBMS902TETM, 18 h, 18 hours at 35° C.
# [15] = system: E. coli UBMS 90-4 Tet M; assay: microbe, parasite or virus in culture; conditions: Escherichia coli, UBMS904TETM, 18 h, 18 hours at 35° C.
# [16] = system: S. aureus UBMS 88-5 Tet M; assay: microbe, parasite or virus in culture; conditions: Staphylococcus aureus, UBMS885TETM, 18 h
# [17] = system: E. coli BAJ9003 IMP MUT; assay: microbe, parasite or virus in culture; conditions: 18 hours at 35° C.
# [18] = system: E. coli MC 4100 TNIOC Tet B; assay: microbe, parasite or virus in culture; conditions: Escherichia coli, 18 h, 18 hours at 35° C.
# [19] = system: E. coli UBMS 89-2 Tet sens; assay: MIC, agar dilution method; conditions: Escherichia coli, UBMS892TETSENS, 18 h, 18 hours at 35° C., read-out: MIC
# [20] = system: Enterococcus 12201; assay: MIC, agar dilution method; conditions: 18 hours at 35° C.
# [21] = system: S. aureus IVES 1 983; assay: MIC, agar dilution method; conditions: Staphylococcus aureus, IVES1983, 18 h
# [22] = system: E. coli ATCC 25922; assay: MIC, agar dilution method; conditions: Escherichia coli, ATCC25922, 18 hours at 35° C., read-out: MIC
# [23] = system: E. coli J3272 Tet D; assay: microbe, parasite or virus in culture; conditions: Escherichia coli, J3272TETD, 18 h
# [24] = system: S. hemolyticus AVHAH 88-3; assay: MIC, agar dilution method; conditions: Streptococcus pyogenes, AVHAH883, 18 h, 18 hours at 35° C.
# [25] = system: E. coli J3272 Tet C; assay: microbe, parasite or virus in culture; conditions: Escherichia coli, J3272TETC, 18 h
# [26] = system: E. coli MC 4100 Tet sens.; assay: MIC, agar dilution method; conditions: Escherichia coli, 18 hours at 35° C., read-out: MIC
# [27] = system: S. aureus ATCC 29213; assay: MIC, agar dilution method; conditions: 18 hours at 35° C.
# [28] = system: S. aureus SMITH (MP); assay: MIC, agar dilution method; conditions: 18 hours at 35° C.
# [29] = system: E. coli UBMS 88-1 Tet B; assay: microbe, parasite or virus in culture; conditions: Escherichia coli, UBMS881TETB, 18 h, 18 hours at 35° C.
# [30] = system: E. coli #311 (MP); assay: MIC, agar dilution method; conditions: Escherichia coli, 18 hours at 35° C., read-out: MIC
# [31] = system: Ps. acruginosa ATCC 27853; assay: MIC, agar dilution method; conditions: Ps. acruginosa ATCC 27853; 18 hours at 35° C.; read-out: MIC
# [32] = system: S. aureus NEMC 8769; assay: MIC, agar dilution method; conditions: Staphylococcus aureus, NEMC8769, 18 h
# [33] = system: tetracycline resistant strains containing the tetM resistance determinant; assay: in vitro antibacterial evaluation, tetM strains; conditions: S. aureus UBMS 88-5, 90-1 and 90-2, E. coli UBMS 89-1 and 90-4
# [34] = system: susceptible strains; assay: in vitro antibacterial evaluation, susceptible strains; conditions: vs minocycline
# [35] = system: E. coli J3272 Tet sens; assay: MIC, agar dilution method; conditions: Escherichia coli, J3272TETSENS, 18 hours at 35° C.
SMILES,MIC [1] [µg/mL],MIC [2] [µg/mL],MIC [5] [µg/mL],MIC [6] [µg/mL],MIC [7] [µg/mL],MIC [11] [µg/mL],MIC [12] [µg/mL],MIC [13] [µg/mL],MIC [14] [µg/mL],MIC [15] [µg/mL],MIC [16] [µg/mL],MIC [18] [µg/mL],MIC [19] [µg/mL],MIC [21] [µg/mL],MIC [22] [µg/mL],MIC [23] [µg/mL],MIC [24] [µg/mL],MIC [25] [µg/mL],MIC [29] [µg/mL],MIC [30] [µg/mL],further results
"CCCCCNCC(=O)Nc1c(Cl)cc2c(c1O)C(=O)C1=C(O)[C@]3(O)C(=O)C(C(N)=O)=C(O)[C@@H](N(C)C)C3CC1C2 (stereo partly drawn) [H, [4S-(4α,12aα)]-8-Chloro-4-(dimethylamino)-1,4,4a,5,5a,6,11,12a-octahydro-3, 10,12,12a-tetrahydroxy-1,11-dioxo-9-[[(pentylamino)acetyl]amino]-2-naphthacenecarboxamide dihydrochloride]",4,2,8,2,0.5,2,16,0.5,0.25,2,1,2,2,4,2,1,4,2,2,2,"MIC ([3]; UBMS903, 18 h): 0.25 µg/mL; MIC ([4]; ATCC29212, 18 h, 18 hours at 35° C.): 0.12 µg/mL; MIC ([8]; Staphylococcus aureus, UBMS901TETM, 18 h): 2 µg/mL; MIC ([9]; Staphylococcus aureus, UBMS887TETK, 18 h): 4 µg/mL; MIC ([10]; Staphylococcus aureus, 18 h): 8 µg/mL; MIC ([17]; Escherichia coli, BAJ9003IMPMUT, 18 h): 0.25 µg/mL; MIC ([20]; Enterococcus, 12201, 18 h): 0.25 µg/mL; MIC [26]: 0.25 µg/mL; MIC ([27]; Staphylococcus aureus, ATCC29213, 18 h): 0.5 µg/mL; MIC ([28]; Staphylococcus aureus, read-out: MIC): 0.5 µg/mL; MIC [31]: > 32 µg/mL; MIC [32]: 0.5 µg/mL"
"CN(C)CC(=O)Nc1c(Cl)cc2c(c1O)C(=O)C1=C(O)[C@]3(O)C(=O)C(C(N)=O)=C(O)[C@@H](N(C)C)C3CC1C2 (stereo partly drawn) [8-chloro-9-(N,N-dimethylglycylamido)-6-demethyl-6-deoxytetracycline]",–,–,–,–,–,–,–,–,–,–,–,–,–,–,–,–,–,–,–,–,in vitro activity against tetracycline resistant strains containing the tetM resistance determinant [33]: good in vitro activity; effectiveness against susceptible strains compared with minocycline [34]: equally as effective as minocycline
"CN(C)CC(=O)Nc1c(Cl)cc2c(c1O)C(=O)C1=C(O)[C@]3(O)C(=O)C(C(N)=O)=C(O)[C@@H](N(C)C)C3CC1C2 (stereo partly drawn) [A, [4S-(4α,12aα)]-8-Chloro-4-(dimethylamino)-9-[[(dimethylamino)acetyl]amino]-1,4,4a,5,5a,6,11,12a-octahydro-3,10,12,12a-tetrahydroxy-1,11-dioxo-2-naphthacenecarboxamide disulfate]",2,1,4,1,0.5,4,16,0.12,0.5,1,0.25,2,2,4,0.5,0.5,1,8,2,0.5,"MIC ([3]; UBMS903, S. aureus UBMS 90-3, 18 hours at 35° C., read-out: MIC): 0.12 µg/mL; MIC ([4]; ATCC29212, 18 hours at 35° C., read-out: MIC): 0.12 µg/mL; MIC [8]: 0.5 µg/mL; MIC [9]: 2 µg/mL; MIC [10]: 16 µg/mL; MIC [35]: 1 µg/mL; MIC [17]: 0.25 µg/mL; MIC [20]: 0.25 µg/mL; MIC [27]: 0.03 µg/mL; MIC [28]: 0.25 µg/mL; MIC [31]: > 32 µg/mL; MIC ([32]; S. aureus NEMC 8769, 18 hours at 35° C.): 0.06 µg/mL"
